Assay results from PubChem BioAssay AID1963423 (Molecular Pharmacology Branch, DTP, NCI, 2024).

Tested on: 439559-082-T-J2-PDC complex spheroid growth
Assay: Anticancer human tumor 439559-082-T-J2-PDC patient-derived colon adenocarcinoma cell line growth inhibition [Asc]
Conditions: for IC50: curve of first compound; for viability, T/C: stronger effect = lower value
Procedure, shortened: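 Tumor cells were grown as multicellular spheroids with stromal HUVEC and mesenchymal stem cells and treated singly or in combination. Concentrations fell in half-log steps from the clinical Cmax, or from 10 microM where none was known.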

[1] = second compound 0.1 µM, first compound 0.0316 µM
[2] = second compound 0.1 µM, first compound 0.1 µM
[3] = second compound 0.1 µM, first compound 0.316 µM
[4] = second compound 0.1 µM, first compound 1 µM
[5] = second compound 0.1 µM, first compound 3.16 µM
[6] = second compound 0.1 µM, first compound 10 µM
[7] = second compound 0.316 µM, first compound 0.0316 µM
[8] = second compound 0.316 µM, first compound 0.1 µM
[9] = second compound 0.316 µM, first compound 0.316 µM
[10] = second compound 0.316 µM, first compound 1 µM
[11] = second compound 0.316 µM, first compound 3.16 µM
[12] = second compound 0.316 µM, first compound 10 µM
[13] = second compound 1 µM, first compound 0.0316 µM
[14] = second compound 1 µM, first compound 0.1 µM
[15] = second compound 1 µM, first compound 0.316 µM
[16] = second compound 1 µM, first compound 1 µM
[17] = second compound 1 µM, first compound 3.16 µM
[18] = second compound 1 µM, first compound 10 µM
[19] = second compound 3.16 µM, first compound 0.0316 µM
[20] = second compound 3.16 µM, first compound 0.1 µM
[21] = second compound 3.16 µM, first compound 0.316 µM
[22] = second compound 3.16 µM, first compound 1 µM
[23] = second compound 3.16 µM, first compound 3.16 µM
[24] = second compound 3.16 µM, first compound 10 µM
[25] = second compound 10 µM, first compound 0.0316 µM
[26] = second compound 10 µM, first compound 0.1 µM
[27] = second compound 10 µM, first compound 0.316 µM
[28] = second compound 10 µM, first compound 1 µM
[29] = second compound 10 µM, first compound 3.16 µM
[30] = second compound 10 µM, first compound 10 µM
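Also: spheroids exposed to agents for 7 days starting day 3 after seeding.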
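For viability, T/C in this document: percent of DMSO vehicle control viability with 100% = vehicle.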

SMILES: C#Cc1c(F)ccc2cc(O)cc(-c3ncc4c(N5CC6CCC(C5)N6)nc(OCC56CCCN5CC(F)C6)nc4c3F)c12 (stereo not given) + Cc1c(S(C)(=O)=O)c(-c2cc(F)cc(N3CCN(c4ccc(NS(=O)(=O)c5ccc(NC(CCN6CCC(C(=O)OCCCP(=O)(O)O)CC6)CSc6ccccc6)c(S(=O)(=O)C(F)(F)F)c5)cc4)CC3)c2)c(-c2ccc(Cl)cc2)n1C(C)C
- IC50 (second compound 0.1 µM): 0.833 µM
- IC50 (second compound 0.316 µM): 0.62 µM
- IC50 (second compound 1 µM): 0.679 µM
- IC50 (second compound 3.16 µM): 0.188 µM
- IC50 (second compound 10 µM): 0.0555 µM
- viability, T/C [1]: 78.3%
- viability, T/C [2]: 77.3%
- viability, T/C [3]: 61.7%
- viability, T/C [4]: 47%
- viability, T/C [5]: 46.3%
- viability, T/C [6]: 37.1%
- viability, T/C [7]: 79%
- viability, T/C [8]: 75.1%
- viability, T/C [9]: 57.5%
- viability, T/C [10]: 43%
- viability, T/C [11]: 40.9%
- viability, T/C [12]: 31.6%
- viability, T/C [13]: 72.6%
- viability, T/C [14]: 66.4%
- viability, T/C [15]: 55.1%
- viability, T/C [16]: 44.1%
- viability, T/C [17]: 41.9%
- viability, T/C [18]: 27.4%
- viability, T/C [19]: 67.2%
- viability, T/C [20]: 55%
- viability, T/C [21]: 45.6%
- viability, T/C [22]: 34.6%
- viability, T/C [23]: 32.7%
- viability, T/C [24]: 22.5%
- viability, T/C [25]: 56.7%
- viability, T/C [26]: 41.2%
- viability, T/C [27]: 36.5%
- viability, T/C [28]: 24.4%
- viability, T/C [29]: 19.3%
- viability, T/C [30]: 14.9%

SMILES: C=C(F)C(=O)N1CCN(c2nc(OCC3CCCN3C)nc3c2CCN(c2cccc4cccc(Cl)c24)C3)CC1CC#N (stereo not given) + Cc1c(S(C)(=O)=O)c(-c2cc(F)cc(N3CCN(c4ccc(NS(=O)(=O)c5ccc(NC(CCN6CCC(C(=O)OCCCP(=O)(O)O)CC6)CSc6ccccc6)c(S(=O)(=O)C(F)(F)F)c5)cc4)CC3)c2)c(-c2ccc(Cl)cc2)n1C(C)C
- IC50 (second compound 0.1 µM): 5.15 µM
- IC50 (second compound 0.316 µM): 4.17 µM
- IC50 (second compound 1 µM): 4.17 µM
- IC50 (second compound 3.16 µM): 3.17 µM
- IC50 (second compound 10 µM): 2.78 µM
- viability, T/C [1]: 96.8%
- viability, T/C [2]: 107%
- viability, T/C [3]: 95%
- viability, T/C [4]: 88.6%
- viability, T/C [5]: 78.4%
- viability, T/C [6]: 14.2%
- viability, T/C [7]: 95.3%
- viability, T/C [8]: 106%
- viability, T/C [9]: 98.5%
- viability, T/C [10]: 77.7%
- viability, T/C [11]: 69.2%
- viability, T/C [12]: 4.6%
- viability, T/C [13]: 95.8%
- viability, T/C [14]: 94.5%
- viability, T/C [15]: 103%
- viability, T/C [16]: 84.5%
- viability, T/C [17]: 66.6%
- viability, T/C [18]: 0.51%
- viability, T/C [19]: 79.1%
- viability, T/C [20]: 95.3%
- viability, T/C [21]: 93.4%
- viability, T/C [22]: 71.7%
- viability, T/C [23]: 51.6%
- viability, T/C [24]: 0.43%
- viability, T/C [25]: 68%
- viability, T/C [26]: 85.8%
- viability, T/C [27]: 86.3%
- viability, T/C [28]: 65.8%
- viability, T/C [29]: 48.5%
- viability, T/C [30]: 2.9%

SMILES: CCN1C(C(=O)NC23CCC(C(=O)O)(CC2)CC3)C(c2cccc(Cl)c2F)C2(C(=O)Nc3cc(Cl)ccc32)C12CCCCC2 (stereo not given) + Cc1c(S(C)(=O)=O)c(-c2cc(F)cc(N3CCN(c4ccc(NS(=O)(=O)c5ccc(NC(CCN6CCC(C(=O)OCCCP(=O)(O)O)CC6)CSc6ccccc6)c(S(=O)(=O)C(F)(F)F)c5)cc4)CC3)c2)c(-c2ccc(Cl)cc2)n1C(C)C
- IC50 (second compound 0.1 µM): > 3 µM
- IC50 (second compound 0.316 µM): > 3 µM
- IC50 (second compound 1 µM): > 3 µM
- IC50 (second compound 3.16 µM): > 3 µM
- IC50 (second compound 10 µM): > 3 µM
- viability, T/C (second compound 0.1 µM, first compound 0.00949 µM): 96.8%
- viability, T/C (second compound 0.1 µM, first compound 0.03 µM): 104%
- viability, T/C (second compound 0.1 µM, first compound 0.0949 µM): 102%
- viability, T/C (second compound 0.1 µM, first compound 0.3 µM): 98.6%
- viability, T/C (second compound 0.1 µM, first compound 0.949 µM): 95.4%
- viability, T/C (second compound 0.1 µM, first compound 3 µM): 93.1%
- viability, T/C (second compound 0.316 µM, first compound 0.00949 µM): 103%
- viability, T/C (second compound 0.316 µM, first compound 0.03 µM): 104%
- viability, T/C (second compound 0.316 µM, first compound 0.0949 µM): 102%
- viability, T/C (second compound 0.316 µM, first compound 0.3 µM): 87.8%
- viability, T/C (second compound 0.316 µM, first compound 0.949 µM): 97.9%
- viability, T/C (second compound 0.316 µM, first compound 3 µM): 86.2%
- viability, T/C (second compound 1 µM, first compound 0.00949 µM): 90.8%
- viability, T/C (second compound 1 µM, first compound 0.03 µM): 97%
- viability, T/C (second compound 1 µM, first compound 0.0949 µM): 99.7%
- viability, T/C (second compound 1 µM, first compound 0.3 µM): 84.5%
- viability, T/C (second compound 1 µM, first compound 0.949 µM): 88.5%
- viability, T/C (second compound 1 µM, first compound 3 µM): 79.3%
- viability, T/C (second compound 3.16 µM, first compound 0.00949 µM): 81.5%
- viability, T/C (second compound 3.16 µM, first compound 0.03 µM): 92%
- viability, T/C (second compound 3.16 µM, first compound 0.0949 µM): 91.4%
- viability, T/C (second compound 3.16 µM, first compound 0.3 µM): 89%
- viability, T/C (second compound 3.16 µM, first compound 0.949 µM): 82%
- viability, T/C (second compound 3.16 µM, first compound 3 µM): 67.8%
- viability, T/C (second compound 10 µM, first compound 0.00949 µM): 69.9%
- viability, T/C (second compound 10 µM, first compound 0.03 µM): 77.7%
- viability, T/C (second compound 10 µM, first compound 0.0949 µM): 74.3%
- viability, T/C (second compound 10 µM, first compound 0.3 µM): 69.5%
- viability, T/C (second compound 10 µM, first compound 0.949 µM): 74.1%
- viability, T/C (second compound 10 µM, first compound 3 µM): 57.3%

SMILES: CNC(C)C(=O)NC1CN(S(=O)(=O)c2cccc(S(=O)(=O)N3CCC4CCC(C(=O)NC(c5ccccc5)c5ccccc5)N4C(=O)C(NC(=O)C(C)NC)C3)c2)CCC2CCC(C(=O)NC(c3ccccc3)c3ccccc3)N2C1=O (stereo not given) + Cc1c(S(C)(=O)=O)c(-c2cc(F)cc(N3CCN(c4ccc(NS(=O)(=O)c5ccc(NC(CCN6CCC(C(=O)OCCCP(=O)(O)O)CC6)CSc6ccccc6)c(S(=O)(=O)C(F)(F)F)c5)cc4)CC3)c2)c(-c2ccc(Cl)cc2)n1C(C)C
- IC50 (second compound 0.1 µM): > 1 µM
- IC50 (second compound 0.316 µM): > 1 µM
- IC50 (second compound 1 µM): > 1 µM
- IC50 (second compound 3.16 µM): > 1 µM
- IC50 (second compound 10 µM): > 1 µM
- viability, T/C (second compound 0.1 µM, first compound 0.00316 µM): 102%
- viability, T/C (second compound 0.1 µM, first compound 0.01 µM): 111%
- viability, T/C [1]: 110%
- viability, T/C [2]: 88.2%
- viability, T/C [3]: 88%
- viability, T/C [4]: 86.3%
- viability, T/C (second compound 0.316 µM, first compound 0.00316 µM): 97.9%
- viability, T/C (second compound 0.316 µM, first compound 0.01 µM): 105%
- viability, T/C [7]: 108%
- viability, T/C [8]: 85%
- viability, T/C [9]: 83%
- viability, T/C [10]: 79.8%
- viability, T/C (second compound 1 µM, first compound 0.00316 µM): 97.5%
- viability, T/C (second compound 1 µM, first compound 0.01 µM): 103%
- viability, T/C [13]: 104%
- viability, T/C [14]: 87.1%
- viability, T/C [15]: 93.9%
- viability, T/C [16]: 80%
- viability, T/C (second compound 3.16 µM, first compound 0.00316 µM): 91.2%
- viability, T/C (second compound 3.16 µM, first compound 0.01 µM): 99.2%
- viability, T/C [19]: 102%
- viability, T/C [20]: 71%
- viability, T/C [21]: 84%
- viability, T/C [22]: 69.7%
- viability, T/C (second compound 10 µM, first compound 0.00316 µM): 75.5%
- viability, T/C (second compound 10 µM, first compound 0.01 µM): 80.4%
- viability, T/C [25]: 90.6%
- viability, T/C [26]: 72.8%
- viability, T/C [27]: 64.7%
- viability, T/C [28]: 66.1%
